Assay results as given in BindingDB's records for patent US20250235456 (Iambic Therapeutics, 2025).

Experiments:
[1] = target: Cyclin-dependent kinase 1 (Homo sapiens, UniProt P06493); experiment: CDK1/Cyclin B1 ADP-Glo Kinase Assay
Protocol: (§1) The purpose of CDK1/Cyclin Bi assay is to evaluate the inhibition (% inhibition and IC50 values) of small molecule inhibitors by using a Luminescent based ADP-Glo assay. CDK1/Cyclin B1 catalyzes the production of ADP from ATP. ADP-Glo assay monitors ADP producing biochemical reactions. ADP-Glo is performed in 2 steps upon completion of kinase reaction: a combined termination of kinase reaction and depletion of remaining ATP in the first step, and conversion of generated ADP to ATP and the newly produced ATP to light output using luciferase/luciferin reaction in the second step. The luminescent signal generated is proportional to the ADP concentration produced and is correlated with the kinase activity. CDK1/Cyclin B1 was purchased from Carna (Cat 04-102). […] The assay was initiated with the addition of ATP-containing substrate solution, following a 30-minute pre-incubation of enzyme and inhibitor at room temperature in the reaction mixture. The reaction was stopped after 90 minutes at room temperature by the addition of 10 μL of ADP-GLO Reagent. After a 90 minute incubation, 20 μL of Kinase Detection Reagent was added. Samples were incubated for 40 minutes, after which plate well luminescence was measured on a Envision microplate reader. The IC50 determinations were made from a plot of the fractional velocity as a function of inhibitor concentration fit to the 4 parameters IC50 equation.

[2] = target: Cyclin-dependent kinase 2/G1/S-specific cyclin-E1 (Homo sapiens, UniProt P24941); experiment: CDK2/Cyclin E1 ADP-Glo Kinase Assay
Protocol: as §1, with “of CDK2/Cyclin El” for “of CDK1/Cyclin Bi”, “assay. CDK2/Cyclin El full length” for “assay. CDK1/Cyclin B1”, “activity. CDK2/Cyclin E1” for “activity. CDK1/Cyclin B1”, “from Eurofins” for “from Carna”, “(Cat 14-475M).” for “(Cat 04-102).”, “20 uL” for “20 μL”

[3] = target: Cyclin-dependent kinase 6/G1/S-specific cyclin-D3 (Homo sapiens, UniProt Q00534); experiment: CDK6/Cyclin D3 ADP-Glo Kinase Assay
Chain of Cyclin-dependent kinase 6/G1/S-specific cyclin-D3 (Q00534 whole entry): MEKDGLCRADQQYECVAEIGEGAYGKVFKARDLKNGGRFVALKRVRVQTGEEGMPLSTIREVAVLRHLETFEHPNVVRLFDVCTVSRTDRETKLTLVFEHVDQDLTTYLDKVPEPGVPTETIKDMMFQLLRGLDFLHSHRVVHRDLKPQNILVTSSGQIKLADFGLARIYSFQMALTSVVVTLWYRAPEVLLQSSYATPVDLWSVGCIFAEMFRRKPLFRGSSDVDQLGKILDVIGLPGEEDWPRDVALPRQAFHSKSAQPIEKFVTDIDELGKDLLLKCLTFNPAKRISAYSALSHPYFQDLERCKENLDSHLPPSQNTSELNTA
Chain of Cyclin-dependent kinase 6/G1/S-specific cyclin-D3 (P30281 whole entry, further chain): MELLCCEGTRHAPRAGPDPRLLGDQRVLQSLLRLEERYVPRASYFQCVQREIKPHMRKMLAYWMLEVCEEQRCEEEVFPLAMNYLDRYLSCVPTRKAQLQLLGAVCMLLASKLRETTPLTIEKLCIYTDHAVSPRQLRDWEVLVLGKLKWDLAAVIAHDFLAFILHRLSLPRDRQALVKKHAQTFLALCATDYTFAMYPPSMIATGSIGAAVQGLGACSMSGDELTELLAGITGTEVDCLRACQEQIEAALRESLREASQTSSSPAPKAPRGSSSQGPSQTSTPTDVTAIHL
Protocol: as §1, with “of the CDK6/Cyclin D3” for “of CDK1/Cyclin Bi”, “values) in the presence” for “values)”, “assay. CDK6/Cyclin D3” for “assay. CDK1/Cyclin B1”, “activity. CDK6/Cychin D3” for “activity. CDK1/Cyclin B1”, “from Carna.” for “from Carna (Cat 04-102).”, “a 90-minute” for “a 90 minute”

Chain of Cyclin-dependent kinase 1 (P06493 whole entry): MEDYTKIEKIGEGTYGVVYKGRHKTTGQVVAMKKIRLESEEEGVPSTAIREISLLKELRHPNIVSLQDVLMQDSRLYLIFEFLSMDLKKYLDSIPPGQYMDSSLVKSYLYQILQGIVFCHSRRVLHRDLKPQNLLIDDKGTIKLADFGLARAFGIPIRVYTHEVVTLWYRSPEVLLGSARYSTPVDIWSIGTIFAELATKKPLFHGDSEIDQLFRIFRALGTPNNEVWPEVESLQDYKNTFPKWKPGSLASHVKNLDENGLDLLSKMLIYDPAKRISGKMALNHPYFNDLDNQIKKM

IC50 [1] | IC50 [2] | IC50 [3] | SMILES
200 to 500 nM | < 200 nM | < 200 nM | Cc1cc2cnc(NC3CCN(S(C)(=O)=O)CC3)nc2c(N2CC3(CN(C)CC3(F)F)C2)n1 [US20250235456, Compound 101]
> 2000 nM | in the range around 1250 nM | 200 to 500 nM | Cc1cc2cnc(NC3CC4CC3CN4C)nc2c(N2CCC3(C2)CC3(F)F)n1 (stereo unspecified) [US20250235456, Compound 43]
< 200 nM |  |  | Cc1cc2cnc(NC3CCN(S(C)(=O)=O)CC3)nc2c(C2CC(C)(CO)C2)n1 (stereo unspecified) [US20250235456, Compound 69]
200 to 500 nM | < 200 nM | 200 to 500 nM | Cc1cc2cnc(NC3CCN(S(=O)(=O)CCC4(C)CC4)CC3)nc2c(N2CC(F)(F)C3(CNC3)C2)n1 [US20250235456, Compound 67]
> 2000 nM | in the range around 350 nM |  | Cc1cc2cnc(Nc3cnn(CC4(N(C)C)CC4)c3)nc2c(N2CCC3(C2)CC3(F)F)n1 (stereo unspecified) [US20250235456, Compound 36]
< 200 nM | < 200 nM | < 200 nM | Cc1cc2cnc(NC3CCN(S(C)(=O)=O)CC3)nc2c(N2CC3(CNCC3C(F)F)C2)n1 (stereo unspecified) [US20250235456, Compound 100]
< 200 nM | < 200 nM | < 200 nM | CN1Cc2ccc(Nc3ncc4ccnc(N5CCC6(C5)CC6(F)F)c4n3)cc2C1 (stereo unspecified) [US20250235456, Compound 22]
 | < 200 nM | < 200 nM | Cc1cc2cnc(NC3CCN(S(=O)(=O)C4CC4)CC3)nc2c(N2CC3(CC(O)C3)C2)n1 [US20250235456, Compound 66]
> 2000 nM | in the range around 350 nM | 200 to 500 nM | Cc1cc2cnc(N[C@@H]3CCOC[C@H]3O)nc2c(N2CC(O)(C3CC3)C2)n1 [US20250235456, Compound 86]
 | < 200 nM | < 200 nM | CS(=O)(=O)N1CCC(Nc2ncc3cc(C(F)F)nc(N4CC5(CCNCC5(F)F)C4)c3n2)CC1 [US20250235456, Compound 90]
< 200 nM | < 200 nM | < 200 nM | Cc1cc2cnc(NC3CCN(S(C)(=O)=O)CC3)nc2c(N2CC3(CNCC3(F)F)C2)n1 [US20250235456, Compound 85]
200 to 500 nM | < 200 nM | < 200 nM | Cc1cc2cnc(NC3CCN(S(=O)(=O)C4CC4)CC3)nc2c(N2CC(OC3CC3)C2)n1 [US20250235456, Compound 57]
 | < 200 nM | 200 to 500 nM | Cc1cc2cnc(NC3CCN(S(=O)(=O)C4CC4)CC3)nc2c(N2CC3(C2)CN(C2CC2)C3)n1 [US20250235456, Compound 48]
 | < 200 nM | < 200 nM | Cc1cc2cnc(NC3CCN(S(=O)(=O)C4(C)CC4)CC3)nc2c(N2CCC3(CN(C)C3)C2)n1 [US20250235456, Compound 59]

SMILES | IC50 [1] | IC50 [2] | IC50 [3]
Cc1cc2cnc(NC3CCN(S(=O)(=O)c4ccn(C)n4)CC3)nc2c(N2CC(F)(F)C3(CNC3)C2)n1 [US20250235456, Compound 94] |  | < 200 nM | 
